From patent US20070173416A1, “Well treatment compositions for use in acidizing a well” (Halliburton Energy Services, Inc., priority 2006, published 2007)
Counter-ions that a name gives are not always drawn. Like-named read-outs stand apart in the source and are kept apart here.

Assays:
Solubility in water = format: physicochemical
physchem = conditions: for half-life / Half-Life in Neutral Water at 100° C.: buffer; for hydrolysis rate / reaction rate (comparison in words): deionized water
Description: In the following examples, various ester hydrolysis reactions were run in the presence of calcium carbonate (CaCO3) to simulate the consumption of filter cake material. The acid evolved in each reaction was measured per unit of time. The acid generated upon hydrolysis was rapidly consumed in a secondary reaction that produced carbon dioxide (CO2). The half-life was secured when half of the CaCO3 was consumed. That is, using PV=nRT, the amount of CaCO3 that would yield approximately 1 liter of CO2 was calculated to be about 4.47 grams. We doubled the amount of CaCO3 (8.94 grams) for the reactions and then calculated the half-life based on the yield of 1 liter of CO2. Unless otherwise specified, all half-life quotations are actually the time required for 4.47 grams of CaCO3 to be consumed.
The following general procedure was used in each of the examples. The closed system reactor shown in FIG. 1 was used to measure the amount of CO2 gas that evolved in each reaction. Water or brine was added to a boiling flask 10, which was heated to 100° C. […] Once the liquid was boiling, a weighed amount of ester was added to flask 10. The amount of ester employed was always in ratio to the water or to the make-up water used to formulate the brine except where commercially available brines were used. Following addition of the ester to the boiling liquid, a reflux condenser 12 was affixed to flask 10. The top of condenser 12 was fixed with an adapter 14 to an inlet tube 18 in a 2-hole rubber stopper 16. The inlet tube 18 was passed through stopper 16, providing a seal. An outlet tube 22 was run from the bottom of a flask 20 to a 1,000 mL graduated cylinder 24. The flask 20 was charged with XP-07 base oil, commercially available from Halliburton Energy Services, Inc. The outlet tube 22 served the purpose of discharging the oil into graduated cylinder 24. The hydrolysis reaction produced acid in flask 10 that reacted with the CaCO3 to produce CO2 gas. The gas displaced the oil in flask 20 into graduated cylinder 24. The rate of CO2 evolution thus could be monitored visually by reading of the amount of oil in graduated cylinder 24 per unit of time.
Solutions containing various esters of lactic acid and of glycerol (i.e., monoacetin, ethyl lactate, triacetin, tripropionin), butyl formate (a control), and BDF-325 diethyleneglycol diformate (a control) in neutral water were prepared and combined with a molar ratio of CaCO3. Hydrolysis reactions were then carried out using the resulting solutions at 100° C. The hydrolysis reactions were monitored, and the half-lives of the esters were compared. The volume of oil displaced by the CO2 gas is plotted as a function of time in FIG. 2. […] The butyl formate to CaCO3 molar ratio was doubled for comparison purposes.
Solutions containing 10 volume % monoacetin, diacetin, and triacetin in deionized water were prepared and combined with a molar ratio of CaCO3. Hydrolysis reactions were then carried out using the resulting solutions at 100° C. The hydrolysis reactions were monitored, and the half-lives of the esters were compared. The volume of oil displaced by the CO2 gas is plotted as a function of time in FIG. 3.

[1] = at 100° C.; cited from earlier work
[2] = Half-Life in Neutral Water at 100° C.
[3] = hydrolysis in neutral water at 100° C.

SMILES | half-life (physchem; [2]) [h] | hydrolysis rate / reaction rate (comparison in words) (physchem; 100° C.) | Pseudo First Order Rate Constant (physchem; [3]) | other results
CC(=O)OCC(O)COC(C)=O [Diacetin] | – | very similar | 4.75 × 10^−5 sec.^−1 | Half-Life in Neutral Water at 100° C. (physchem): 14,600 seconds
CC(=O)OCC(O)CO (centres unmarked) [Monoacetin] | – | – | 1.8 × 10^−5 sec.^−1 | half-life versus targeted range (greater than 10 hours at 100° C. desired) (physchem; 10 volume % in deionized water, 100° C.): within the targeted range; consumed more slowly relative to the other two acetins (physchem; 10 volume % in deionized water, 100° C., vs triacetin and diacetin): 4-5 times; Half-Life in Neutral Water at 100° C. (physchem): 38,400 seconds
CC(=O)OCC(COC(C)=O)OC(C)=O [Triacetin] | 2.73 | very similar | 7.04 × 10^−5 sec.^−1 | –
CCC(=O)OCC(COC(=O)CC)OC(=O)CC [Tripropionin] | – | – | – | Pseudo First Order Rate Constant (physchem): 1.05 × 10^−5 sec.^−1; Half-Life in Neutral Water at 100° C. (physchem): 32,344.83 seconds
CC(=O)O [acetic acid] | – | – | – | strength of the acid (pH) [1]: 4.76
CCCCOC=O [butyl formate, reference compound] | – | slow reaction rate | – | solubility in water (Solubility in water): poor solubility
O=COCCOCCOC=O [diethyleneglycol diformate, reference compound] | – | – | – | half-life (physchem; half-life): 0.3 to 0.333 h

Further lines, with some results ahead:

half-life (physchem; [2]) [h] | hydrolysis rate / reaction rate (comparison in words) (physchem; 100° C.) | Pseudo First Order Rate Constant (physchem; [3]) | SMILES | other results
21.3 | faster than that of the butyl formate | 9.03 × 10^−6 sec.^−1 | CCCCOC(=O)C(C)O (centres unmarked) [Butyl lactate] | solubility in water (Solubility in water): slightly soluble
8.71 | – | 2.2 × 10^−5 sec.^−1 | CCOC(=O)C(C)O (centres unmarked) [Ethyl Lactate] | hydrolysis in deionized water and various brines (physchem; 10 volume % in deionized water and various brines, 100° C.): performed consistently; half-life (physchem; half-life): 10 to 11 h
2.71 | – | 2.1 × 10^−5 sec.^−1 | COC(=O)C(C)O (centres unmarked) [Methyl lactate] | –
25.8 | – | 7.4 × 10^−6 sec.^−1 | CCCOC(=O)C(C)O (centres unmarked) [Propyl lactate] | –
